Structures are written as SMILES. In brackets after ≈: the same amount, converted by molar mass.

By IC50 is commonly meant the concentration needed to halve the response being measured.

This assay concerns HL-60. The assay can be described thus: Cytotoxicity against human HL60 cells. The format is functional, cell-based.
`COC(=O)/C(C)=C/C=C/C(C)=C/C=C/C(C)=C1\C(=O)C[C@H]2[C@@]3(C)CC[C@H](O)C(C)(C)[C@@H]3CC[C@]12C` [RHABDASTRELLIN F] registered an IC50 of more than 10 µg/mL.
Under `CC(/C=C/C=C(C)/C=C/C(O)C(C)(C)O)=C1/C(=O)C[C@H]2[C@@]3(C)CC[C@H](O)[C@](C)(CO)[C@@H]3CC[C@]12C` (stereo partly specified) [RHABDASTRELLIN B] stands more than 10 µg/mL; under `C\C(=C/C=C/C(C)=C1/C(=O)C[C@H]2[C@@]3(C)CC[C@H](O)[C@](C)(CO)[C@@H]3CC[C@]12C)c1ccc(C)c(=O)o1` [RHABDASTRELLIN A], 4.2 µg/mL (≈ 8.74 µM).
As to `C/C(C(=O)/C=C/C(C)=C/C=C/C(C)(C)O)=C1/C(=O)C[C@H]2[C@@]3(C)CC[C@H](O)[C@](C)(CO)[C@@H]3CC[C@]12C` [RHABDASTRELLIN D], the IC50 is more than 10 µg/mL.
For `COC(=O)/C(C)=C/C=C/C(C)=C/C=C/C(C)=C1/C(=O)C[C@H]2[C@@]3(C)CC[C@H](O)C(C)(C)[C@@H]3CC[C@]12C` [RHABDASTRELLIN E] the value was more than 10 µg/mL; for `CC(/C=C/C(O)C(C)(C)O)=C\C=C\C(C)=C1\C(=O)C[C@H]2[C@@]3(C)CC[C@H](O)[C@](C)(CO)[C@@H]3CC[C@]12C` (stereo partly specified) [RHABDASTRELLIN C], more than 10 µg/mL.

Source of the values: ChEMBL document CHEMBL1140179, “Rhabdastrellins A-F, isomalabaricane triterpenes from the marine sponge Rhabdastrella aff. distincta” (J Nat Prod, 2008).
